Measured values: article PMC8956739, “A synthetic lipopeptide targeting top-priority multidrug-resistant Gram-negative pathogens” (Nature Communications, 2022)
Several values for one entry are separate records, joined by “and”; a condition that tells them apart may be missing. Equal entries are not always repeated. Where two headings read alike, the source gives them in different places.

Key:
Format in all cases: cell-based, Acinetobacter baumannii
A. baumannii AB5075 [1] = system: A. baumannii AB5075
How it was run: (§1)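 Cation-adjusted Mueller–Hinton broth was used with the broth microdilution method to set MICs against clinical isolates. A separate run on P. aeruginosa ATCC 27853 added 10% Survanta® (v/v, 2.5 mg/mL phospholipids) to gauge lung-surfactant binding of polymyxins.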

A. baumannii ATCC 19606 = system: A. baumannii ATCC 19606
How it was run: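 Susceptibility: microdilution MIC in CaMHB.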

A. baumannii FADDI-AB030 = conditions: carbapenem-resistant isolate
How it was run: as §1

A. baumannii FADDI-AB034 = conditions: carbapenem-resistant isolate
How it was run: as §1

[2] = system: MDR clinical isolates of A. baumannii (n = 210, 200 carbapenem-resistant)
How it was run: as §1

A. baumannii AB5075 [3] = test: In vitro passaging, emergence of resistance
Procedure: Log-phase cultures (OD600 = 0.5, ~10^8 CFU/mL) of A. baumannii AB5075 were inoculated (1:10, v/v) in 200 μL fresh CaMHB (cation-adjusted Mueller–Hinton broth) containing 2, 8 and 16 μg/mL polymyxin B, colistin, F287, and F365 in a 96-well microplate with 4 biological replicates. The cultures were incubated at 37 °C for 12 h before the next dilution (1:10, v/v) with fresh CaMHB. Successive subculturing was conducted for 7 days.

Substance: Polymyxin B [reference compound]
- MIC A. baumannii AB5075 (A. baumannii AB5075 [1]): 0.5 µg/mL
- MIC A. baumannii ATCC 19606 (A. baumannii ATCC 19606): 1 µg/mL
- MIC A. baumannii FADDI-AB030 (A. baumannii FADDI-AB030): 0.25 µg/mL
- MIC A. baumannii FADDI-AB034 (A. baumannii FADDI-AB034): 0.5 µg/mL
- MIC50 ([2]; A. baumannii n = 210): 1 µg/mL
- MIC90 ([2]; A. baumannii n = 210): 4 µg/mL
- Number of isolates ([2]; isolates with MIC 0.05 µg/mL): 0
- Number of isolates ([2]; isolates with MIC 0.125 µg/mL): 0
- Number of isolates ([2]; isolates with MIC 0.25 µg/mL): 0
- Number of isolates ([2]; isolates with MIC 0.5 µg/mL): 24
- Number of isolates ([2]; isolates with MIC 1 µg/mL): 120
- Number of isolates ([2]; isolates with MIC 2 µg/mL): 47
- Number of isolates ([2]; isolates with MIC 4 µg/mL): 11
- Number of isolates ([2]; isolates with MIC 8 µg/mL): 5
- Number of isolates ([2]; isolates with MIC 16 µg/mL): 2
- Number of isolates ([2]; isolates with MIC 32 µg/mL): 0
- Number of isolates ([2]; isolates with MIC 64 µg/mL): 0
- Number of isolates ([2]; isolates with MIC >64 µg/mL): 0
- regrowth observed from day (A. baumannii AB5075 [3]): 3 days
- OD600 (A. baumannii AB5075 [3]; 8 ug/mL, time 0 h, passage 0, replicates rep1-rep4, raw OD600 (blank OD600 0.125333)): 0.153 and 0.134 and 0.139 and 0.14
- OD600 (A. baumannii AB5075 [3]; 8 ug/mL, time 12 h, passage 1, replicates rep1-rep4, raw OD600 (blank OD600 0.114667)): 0.127 and 0.115 and 0.123 and 0.124
- OD600 (A. baumannii AB5075 [3]; 8 ug/mL, time 24 h, passage 2, replicates rep1-rep4, raw OD600 (blank OD600 0.0956667)): 0.086 and 0.093 and 0.096 and 0.083
- OD600 (A. baumannii AB5075 [3]; 8 ug/mL, time 36 h, passage 3, replicates rep1-rep4, raw OD600 (blank OD600 0.088)): 0.088 and 0.089 and 0.094 and 0.092
- OD600 (A. baumannii AB5075 [3]; 8 ug/mL, time 48 h, passage 4, replicates rep1-rep4, raw OD600 (blank OD600 0.104667)): 0.096 and 0.099 and 0.098 and 0.101
- OD600 (A. baumannii AB5075 [3]; 8 ug/mL, time 60 h, passage 5, replicates rep1-rep4, raw OD600 (blank OD600 0.122333)): 0.108 and 0.105 and 0.103 and 0.116
- OD600 (A. baumannii AB5075 [3]; 8 ug/mL, time 72 h, passage 6, replicates rep1-rep4, raw OD600 (blank OD600 0.095)): 0.092 and 0.093 and 0.083 and 0.091
- OD600 (A. baumannii AB5075 [3]; 8 ug/mL, time 84 h, passage 7, replicates rep1-rep4, raw OD600 (blank OD600 0.091)): 0.1 and 0.081 and 0.084 and 0.089
- OD600 (A. baumannii AB5075 [3]; 8 ug/mL, time 96 h, passage 8, replicates rep1-rep4, raw OD600 (blank OD600 0.0953333)): 0.192 and 0.105 and 0.119 and 0.106
- OD600 (A. baumannii AB5075 [3]; 8 ug/mL, time 108 h, passage 9, replicates rep1-rep4, raw OD600 (blank OD600 0.100667)): 0.179 and 0.108 and 0.11 and 0.118
- OD600 (A. baumannii AB5075 [3]; 8 ug/mL, time 120 h, passage 10, replicates rep1-rep4, raw OD600 (blank OD600 0.0983333)): 0.215 and 0.139 and 0.136 and 0.132
- OD600 (A. baumannii AB5075 [3]; 8 ug/mL, time 132 h, passage 11, replicates rep1-rep4, raw OD600 (blank OD600 0.0843333)): 0.198 and 0.19 and 0.197 and 0.21
- OD600 (A. baumannii AB5075 [3]; 8 ug/mL, time 144 h, passage 12, replicates rep1-rep4, raw OD600 (blank OD600 0.091)): 0.2 and 0.22 and 0.217 and 0.231
- OD600 (A. baumannii AB5075 [3]; 8 ug/mL, time 156 h, passage 13, replicates rep1-rep4, raw OD600 (blank OD600 0.129)): 0.176 and 0.181 and 0.195 and 0.201
- time to emergence of resistance (A. baumannii AB5075 [3]; 4× MIC, 7-day passaging): ≤ 3 days
- growth over 7 days (A. baumannii AB5075 [3]; 32× MIC): No growth
- OD600 (A. baumannii AB5075 [3]; in vitro passaging, concentration 8 ug/mL, time 168 h, passage 14, individual replicates rep1-rep4, not blank-subtracted (blank OD600 0.101)): 0.177 and 0.182 and 0.195 and 0.205
